Experimental data as given in US6235891A, “Glucocorticoid receptor agonist and decreased PP5” (South Alabama Medical Science Foundation, priority 1999, dated 2001).

Test system: serum/glucocorticoid inducible protein kinase (sgk) mRNA
Test: Northern analysis of sgk mRNA
Format: cell-based, human
Conditions: 24 hours
Procedure: The cells were harvested, and total RNA was extracted with TRIzol® Reagent according to the methods of the manufacturer. Total RNA (20 μg) was fractionated on 1% agarose gels containing formaldehyde and transferred to DURLON-UV nylon membranes (Stratagene). Following UV cross-linking, the filters were hybridized with a [α^32 P]probe for human PP5. The human PP5 cDNA probe was generated from the full length coding region of PP5 and [α^32 P]-dATP was labeled with DECAprime® DNA Labeling Kit according to the manufacturer's protocol. […] Quantification of hybridization signals was achieved by analysis of the scanned autoradiograms using the NIH Image program (ImagePC).
The antiproliferative effect of dexamethasone correlates with the presence of wild type p53 and the expression of p21^Waf1/Cip1 mRNA. Referring to FIGS. 1A-1C, the effect of dexamethasone on cell proliferation in p53-defective T-24 human bladder carcinoma, p53-null TR9 human fibroblasts (Webster et al. 1993; Maiyar et al. 1996), and p53 wild-type A549 human lung carcinoma cells was determined by treating cells in log-phase growth with a single dose of 100 nM dexamethasone and counting the number of cells in treated (.cndot.) and untreated (.box-solid.) cultures for six consecutive days following treatment. […] After 24 hours total mRNA was prepared and analyzed for p21 and sgk mRNA levels by Northern analysis. […]

Q: What does the source list for `C[C@@H]1C[C@H]2[C@@H]3CCC4=CC(=O)C=C[C@]4(C)[C@@]3(F)[C@@H](O)C[C@]2(C)[C@@]1(O)C(=O)CO` [dexamethasone, reference compound]?
A: Expression of sgk (A549 cells, dexamethasone 0-100 nM): dose-dependent increase; Expression of sgk (all three cell lines (A549, T-24, TR9), 100 nM): induced the expression
